Two compounds from patent publication US20070117770A1, “Human ribosomal DNA (rDNA) and ribosomal RNA (rRNA) nucleic acids and uses thereof” (Cylene Pharmaceuticals, Inc., priority 2005, published 2007) can be followed below.

Structures are written as SMILES.

What all share (experiment): Protein kinase inhibition assay
What all share (format): biochemical

For one assay, the target named is Aurora-A(h) (Homo sapiens, UniProt O14965). The note with it: read-out: percent residual activity of Aurora-A(h). The method, then:
(§1) Certain compounds were tested for activity in protein kinase inhibition assays. All substrates were dissolved and diluted to working stocks in de-ionized water, apart from histone H1 (10× working stock in 20 mM MOPS pH 7.0), PDKtide (10× working stock in 50 mM Tris pH 7.0) ATF2 (which is typically stored at a 20× working stock in 50 mM Tris pH 7.5, 150 mM NaCl, 0.1 mM EGTA, 0.03% Brij-35, 50% glycerol, 1 mM benzamidine, 0.2 mM PMSF and 0.1% R-mercaptoethanol), KKLNRTLSFAEPG (SEQ ID NO:203) and RRRLSFAEPG (SEQ ID NO:204) (50 mM HEPES pH 7.4) and GGEEEEYFELVKKKK (SEQ ID NO:205) (20 mM MOPS pH 7.0). All kinases were pre-diluted to a 10× working concentration prior to addition into the assay. The composition of the dilution buffer for each kinase is detailed below.
In a final reaction volume of 25 μl, Aurora-A (h) (5-10 mU) is incubated with 8 mM MOPS pH 7.0, 0.2 mM EDTA, 200 μM LRRASLG (SEQ ID NO:209) (Kemptide), 10 mM MgAcetate and [gamma-33P-ATP] (specific activity approx. 500 cpm/pmol, concentration as required). The reaction is initiated by the addition of the MgATP mix. After incubation for 40 minutes at room temperature, the reaction is stopped by the addition of 5 μl of a 3% phosphoric acid solution. […]

The target of the next assay is CK2(h) (Homo sapiens, UniProt P68400). The note with it: read-out: percent residual activity of CK2(h). The method, then: as §1
CK2(h), sequence (P68400 whole entry): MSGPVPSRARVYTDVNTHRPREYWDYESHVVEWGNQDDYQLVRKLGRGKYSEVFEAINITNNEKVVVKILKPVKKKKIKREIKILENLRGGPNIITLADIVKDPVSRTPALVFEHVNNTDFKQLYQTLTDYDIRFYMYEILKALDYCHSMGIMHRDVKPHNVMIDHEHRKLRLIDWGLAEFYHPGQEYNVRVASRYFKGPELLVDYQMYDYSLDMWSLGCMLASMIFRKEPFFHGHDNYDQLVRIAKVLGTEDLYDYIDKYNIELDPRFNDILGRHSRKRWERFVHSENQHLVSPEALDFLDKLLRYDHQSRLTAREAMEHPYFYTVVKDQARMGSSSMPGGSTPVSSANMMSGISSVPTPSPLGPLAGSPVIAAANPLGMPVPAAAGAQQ
CK2(h), sequence (P67870 whole entry partner): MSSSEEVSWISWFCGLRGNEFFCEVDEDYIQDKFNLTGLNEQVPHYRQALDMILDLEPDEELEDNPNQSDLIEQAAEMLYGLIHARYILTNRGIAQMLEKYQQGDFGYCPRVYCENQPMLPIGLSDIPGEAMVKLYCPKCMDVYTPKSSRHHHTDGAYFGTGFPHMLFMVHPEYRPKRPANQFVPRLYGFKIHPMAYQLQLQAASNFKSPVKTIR
In a final reaction volume of 25 μl, CK2 (h) (5-10 mU) is incubated with 20 mM HEPES pH 7.6, 0.15 M NaCl, 0.1 mM EDTA, 5 mM DTT, 0.1% Triton X-100, 165 μM RRRDDDSDDD (SEQ ID NO:215), 10 mM MgAcetate and [gamma-33P-ATP] (specific activity approx. 500 cpm/pmol, concentration as required). The reaction is initiated by the addition of the MgATP mix. After incubation for 40 minutes at room temperature, the reaction is stopped by the addition of 5 μl of a 3% phosphoric acid solution. […]

The target in the next assay is T1, MKK7β(h) (Homo sapiens, UniProt O14733).
T1 sequence (O14733 1-419): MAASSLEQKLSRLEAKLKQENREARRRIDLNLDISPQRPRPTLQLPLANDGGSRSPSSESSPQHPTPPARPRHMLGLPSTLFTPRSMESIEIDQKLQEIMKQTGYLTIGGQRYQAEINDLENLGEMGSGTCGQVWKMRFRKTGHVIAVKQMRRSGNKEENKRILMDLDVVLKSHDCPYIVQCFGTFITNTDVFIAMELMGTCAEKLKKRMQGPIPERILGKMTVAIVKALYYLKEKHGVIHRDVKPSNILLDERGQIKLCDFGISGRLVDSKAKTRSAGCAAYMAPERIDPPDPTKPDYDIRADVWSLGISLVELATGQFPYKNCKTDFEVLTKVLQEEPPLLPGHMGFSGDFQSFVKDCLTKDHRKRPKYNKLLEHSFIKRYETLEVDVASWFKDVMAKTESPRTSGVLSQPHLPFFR
The conditions noted are these: for remaining activity at 2.5 µM: read-out: percent residual activity of MKK7β(h). The method, then: as §1
The reaction is initiated by the addition of the MgATP. After incubation for 40 minutes at room temperature, 5 μl of this incubation mix is used to initiate a JNK1α1 (h) assay, which is exactly as described on page 11 of this book except that ATF2 is replaced with 250 μM peptide.

The next assay has as its target MST1(h) (Homo sapiens, UniProt Q13043). The conditions noted are these: read-out: percent residual activity of MST1(h). The method, then:
as §1
In a final reaction volume of 25 μl, MST1 (h) (5-10 mU) is incubated with 8 mM MOPS pH 7.0, 0.2 mM EDTA, 250 μM KKSRGDYMTMQIG (SEQ ID NO:210), 10 mM MgAcetate and [gamma-33P-ATP] (specific activity approx. 500 cpm/pmol, concentration as required). The reaction is initiated by the addition of the MgATP mix. After incubation for 40 minutes at room temperature, the reaction is stopped by the addition of 5 μl of a 3% phosphoric acid solution. 10 μl of the reaction is then spotted onto a P30 filtermat and washed three times for 5 minutes in 75 mM phosphoric acid and once in methanol prior to drying and scintillation counting.

A further assay has as its target ROCK-II(r) (Rattus norvegicus, UniProt Q62868). The conditions noted are these: read-out: percent residual activity of ROCK-II(r). The method, then:
as §1
In a final reaction volume of 25 μl, ROCK-II (r) (5-10 mU) is incubated with 50 mM Tris pH 7.5, 0.1 mM EGTA, 30 μM […] (SEQ ID NO:222), 10 mM MgAcetate and [gamma-33P-ATP] (specific activity approx. 500 cpm/pmol, concentration as required). The reaction is initiated by the addition of the MgATP mix. After incubation for 40 minutes at room temperature, the reaction is stopped by the addition of 5 μl of a 3% phosphoric acid solution. 10 μl of the reaction is then spotted onto a P30 filtermat and washed three times for 5 minutes in 75 mM phosphoric acid and once in methanol prior to drying and scintillation counting.

In the next assay the target is ZAP-70(h) (Homo sapiens, UniProt P43403). The note with it: read-out: percent residual activity of ZAP-70(h). The method, then:
as §1
In a final reaction volume of 25 μl, ZAP-70 (h) (5-10 mU) is incubated with 50 mM Tris pH 7.5, 0.1 mM EGTA, 0.1 mM Na3VO4, 0.1% R-mercaptoethanol, 0.1 mg/ml poly(Glu, Tyr) 4:1, 10 mM MnCl2, 10 mM MgAcetate and [gamma-33P-ATP] (specific activity approx. 500 cpm/pmol, concentration as required). The reaction is initiated by the addition of the MgATP mix. After incubation for 40 minutes at room temperature, the reaction is stopped by the addition of 5 μl of a 3% phosphoric acid solution. […]

ZAP-70(h), sequence (P43403 whole entry): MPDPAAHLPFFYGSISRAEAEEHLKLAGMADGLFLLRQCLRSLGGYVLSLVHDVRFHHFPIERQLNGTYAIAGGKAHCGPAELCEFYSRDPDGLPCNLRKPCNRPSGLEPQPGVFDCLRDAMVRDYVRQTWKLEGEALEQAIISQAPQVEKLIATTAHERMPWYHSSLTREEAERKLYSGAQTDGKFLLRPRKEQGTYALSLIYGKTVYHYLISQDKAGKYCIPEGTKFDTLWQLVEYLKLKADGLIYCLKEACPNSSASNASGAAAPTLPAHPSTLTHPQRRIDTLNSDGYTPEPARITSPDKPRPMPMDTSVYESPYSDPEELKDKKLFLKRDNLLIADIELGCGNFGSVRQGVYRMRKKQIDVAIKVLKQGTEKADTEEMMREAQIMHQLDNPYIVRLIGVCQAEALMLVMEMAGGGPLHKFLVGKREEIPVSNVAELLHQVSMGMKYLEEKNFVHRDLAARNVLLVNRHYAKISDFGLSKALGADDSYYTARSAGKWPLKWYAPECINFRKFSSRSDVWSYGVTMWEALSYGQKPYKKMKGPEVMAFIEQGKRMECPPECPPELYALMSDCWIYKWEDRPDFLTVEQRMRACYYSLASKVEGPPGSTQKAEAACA
MST1(h), sequence (Q13043 whole entry): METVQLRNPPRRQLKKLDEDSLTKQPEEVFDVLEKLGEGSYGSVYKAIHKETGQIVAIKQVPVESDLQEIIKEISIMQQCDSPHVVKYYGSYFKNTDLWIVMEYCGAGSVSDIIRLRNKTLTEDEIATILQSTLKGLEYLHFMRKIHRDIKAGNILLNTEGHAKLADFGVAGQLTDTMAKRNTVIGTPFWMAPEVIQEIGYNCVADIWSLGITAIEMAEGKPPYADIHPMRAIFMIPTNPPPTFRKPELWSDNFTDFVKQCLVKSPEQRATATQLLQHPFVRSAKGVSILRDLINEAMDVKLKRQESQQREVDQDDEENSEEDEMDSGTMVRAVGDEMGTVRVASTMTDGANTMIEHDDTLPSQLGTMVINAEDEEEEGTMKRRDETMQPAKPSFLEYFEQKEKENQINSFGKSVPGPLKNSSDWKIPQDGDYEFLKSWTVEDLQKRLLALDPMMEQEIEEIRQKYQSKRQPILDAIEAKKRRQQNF
Aurora-A(h), sequence (O14965 whole entry): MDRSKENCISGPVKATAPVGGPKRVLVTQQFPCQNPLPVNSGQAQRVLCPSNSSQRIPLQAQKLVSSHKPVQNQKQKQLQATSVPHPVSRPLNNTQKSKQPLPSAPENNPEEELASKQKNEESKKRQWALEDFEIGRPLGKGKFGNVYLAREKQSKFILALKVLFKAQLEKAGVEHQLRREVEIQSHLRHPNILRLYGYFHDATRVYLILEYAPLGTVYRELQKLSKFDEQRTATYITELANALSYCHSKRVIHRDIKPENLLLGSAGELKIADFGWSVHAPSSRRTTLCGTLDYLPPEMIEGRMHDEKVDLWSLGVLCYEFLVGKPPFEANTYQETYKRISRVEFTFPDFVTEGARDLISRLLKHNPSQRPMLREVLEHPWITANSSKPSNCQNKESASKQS
ROCK-II(r), sequence (Q62868 whole entry): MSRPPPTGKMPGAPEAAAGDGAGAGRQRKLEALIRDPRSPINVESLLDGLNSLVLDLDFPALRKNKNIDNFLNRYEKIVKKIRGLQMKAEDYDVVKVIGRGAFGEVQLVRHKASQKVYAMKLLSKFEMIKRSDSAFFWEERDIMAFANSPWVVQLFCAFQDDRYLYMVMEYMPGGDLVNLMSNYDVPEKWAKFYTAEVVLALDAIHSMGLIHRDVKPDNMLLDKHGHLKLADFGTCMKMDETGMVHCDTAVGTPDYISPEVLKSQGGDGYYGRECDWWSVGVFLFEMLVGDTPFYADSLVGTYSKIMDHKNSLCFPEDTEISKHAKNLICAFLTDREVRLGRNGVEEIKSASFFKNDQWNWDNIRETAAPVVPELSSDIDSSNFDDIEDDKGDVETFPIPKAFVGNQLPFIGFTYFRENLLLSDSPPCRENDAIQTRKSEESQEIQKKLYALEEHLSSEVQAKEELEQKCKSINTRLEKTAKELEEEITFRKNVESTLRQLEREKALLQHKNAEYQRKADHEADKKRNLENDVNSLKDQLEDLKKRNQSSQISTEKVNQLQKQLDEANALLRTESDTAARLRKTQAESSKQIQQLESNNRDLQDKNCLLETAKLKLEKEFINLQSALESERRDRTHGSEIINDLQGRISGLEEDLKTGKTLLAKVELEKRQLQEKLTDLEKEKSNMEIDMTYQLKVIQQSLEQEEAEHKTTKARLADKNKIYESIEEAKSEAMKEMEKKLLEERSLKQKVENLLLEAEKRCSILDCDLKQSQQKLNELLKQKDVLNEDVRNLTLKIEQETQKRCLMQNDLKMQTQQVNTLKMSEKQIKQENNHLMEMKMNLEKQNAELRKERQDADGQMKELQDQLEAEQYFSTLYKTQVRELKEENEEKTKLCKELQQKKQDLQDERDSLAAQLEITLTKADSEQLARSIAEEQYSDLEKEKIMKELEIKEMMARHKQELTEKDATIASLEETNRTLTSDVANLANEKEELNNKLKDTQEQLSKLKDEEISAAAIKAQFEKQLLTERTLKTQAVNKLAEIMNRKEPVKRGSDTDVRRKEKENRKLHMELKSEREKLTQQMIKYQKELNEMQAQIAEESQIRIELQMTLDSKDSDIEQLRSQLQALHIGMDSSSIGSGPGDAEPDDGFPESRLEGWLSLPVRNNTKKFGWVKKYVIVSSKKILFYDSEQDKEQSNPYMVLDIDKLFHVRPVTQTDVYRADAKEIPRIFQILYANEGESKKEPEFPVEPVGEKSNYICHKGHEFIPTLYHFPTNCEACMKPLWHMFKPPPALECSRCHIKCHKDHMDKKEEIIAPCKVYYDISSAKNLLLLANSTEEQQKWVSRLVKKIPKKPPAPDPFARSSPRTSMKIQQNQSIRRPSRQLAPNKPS

In the case of `CN1CCCC1CCNC(=O)c1cn2c3c(c(N4CCC(c5cnccn5)C4)c(F)cc3c1=O)Oc1cc3ccccc3cc1-2` (stereo not shown) [Compound A-1], the remaining activity at 2.5 µM at Aurora-A(h) was determined as 43%; at CK2(h), 104%; on MKK7β(h), 111%; at MST1(h) it was 76%; on ROCK-II(r), 48%; on ZAP-70(h), 130%.

Consider `CC(=O)N1CCN(c2ccc3c(=O)c(C(=O)NCCN4CCCC4)c4n(C)c5ccccc5n4c3n2)CC1` [Compound B-1], for which the remaining activity at 2.5 µM on Aurora-A(h) was 104%; on CK2(h) it was 102%; at MKK7β(h), 1%; on MST1(h), 96%; at ROCK-II(r), 103%; at ZAP-70(h), 105%. Moreover, the “inhibition of MKK7B” value on MKK7β(h) (2.5 μM) is “inhibits MKK7B”.
